# Experiments:
# RARβ = target: T1, RARβ (Homo sapiens, UniProt P10826); test: Ligand binding assay; settings: read-out: Kd (nanomolar) RARβ
# T1 sequence (P10826 1-455): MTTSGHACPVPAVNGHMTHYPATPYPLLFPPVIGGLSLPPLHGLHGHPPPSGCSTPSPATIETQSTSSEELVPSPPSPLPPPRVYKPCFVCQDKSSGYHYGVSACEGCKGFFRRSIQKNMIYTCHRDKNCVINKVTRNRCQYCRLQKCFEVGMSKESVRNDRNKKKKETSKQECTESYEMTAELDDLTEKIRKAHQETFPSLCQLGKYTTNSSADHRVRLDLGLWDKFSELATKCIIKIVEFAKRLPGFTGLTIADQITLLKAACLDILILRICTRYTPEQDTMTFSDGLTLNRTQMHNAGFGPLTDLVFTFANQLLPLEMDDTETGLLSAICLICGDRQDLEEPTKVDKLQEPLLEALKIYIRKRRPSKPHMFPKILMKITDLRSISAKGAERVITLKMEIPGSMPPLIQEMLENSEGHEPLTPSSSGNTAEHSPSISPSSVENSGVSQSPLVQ
# Source text: (§1) A holoreceptor transactivation assay and a ligand binding assay which measure the antagonist/agonist like activity of the compounds of the invention, or their ability to bind to the several retinoid receptor subtypes, respectively, are described in published PCT Application No. WO93/11755 (particularly on pages 30-33 and 37-41) published on Jun. 24, 1993, the specification of which is also incorporated herein by reference. A description of the holoreceptor transactivation assay is also provided below.
# (§2) CV1 cells (5,000 cells/well) were transfected with an RAR reporter plasmid MTV-TREp-LUC (50 ng) along with one of the RAR expression vectors (10 ng) in an automated 96-well format by the calcium phosphate procedure of Heyman et al. Cell 68: 397-406. For RXR-α and RXR-γ transactivation assays, an RXR-responsive reporter plasmid CRBPII-tk-LUC (50 ng) along with the appropriate RXR expression vectors (10 ng) was used substantially as described by Heyman et al. above, and Allegretto et al. J. Biol. Chem. 268: 26625-26633. For RXR-β transactivation assays, an RXR-responsive reporter plasmid CPRE-tk-LUC ([…]) along with RXR-β expression vector ([…]) was used as described in above. These reporters contain DRI elements from human CRBPII and certain DRI elements from promotor, respectively (see Mangelsdorf et al. The Retinoids: Biology Chemistry and Medicine, pp. 319-349, Raven Press Ltd., New York and Heyman et al., cited above). A β-galactosidase (50 ng) expression vector was used as an internal control in the transfections to normalize for variations in transfection efficiency. The cells were transfected in triplicate for 6 hours, followed by incubation with retinoids for 36 hours, and the extracts were assayed for luciferase and […] activities. The detailed experimental procedure for holoreceptor transactivations has been described in Heyman et al. above, and Allegretto et al. cited above. The results obtained in this assay are expressed in EC50 numbers, as they are also in the chimeric receptor transactivation assay. The Heyman et al. Cell 68: 397-406, Allegretto et al. J. Biol. Chem. 268: 26625-26633, and Mangelsdorf et al. The Retinoids: Biology, Chemistry, and Medicine, pp. 319-349, Raven Press Ltd., New York, are expressly incorporated herein by reference. The results of ligand binding assay are expressed in Kd numbers. (See Cheng et al. Biochemical Pharmacology 22: 3099-3108, expressly incorporated herein by reference.) […]
# RAR-γ-VP-16 = test: Example 12: assay for retinoid negative hormones, CV-1 cells; assay type: cell-based; settings: 10^−9 to 10^−6 M, 18 hours, no agonist
# RARα = target: T2, RARα (Homo sapiens, UniProt P10276); test: Ligand binding assay; parameters: expressed in transfected cells; host or cells: CV1 cells; settings: read-out: Kd (nanomolar) RARα
# T2 sequence (P10276 1-462): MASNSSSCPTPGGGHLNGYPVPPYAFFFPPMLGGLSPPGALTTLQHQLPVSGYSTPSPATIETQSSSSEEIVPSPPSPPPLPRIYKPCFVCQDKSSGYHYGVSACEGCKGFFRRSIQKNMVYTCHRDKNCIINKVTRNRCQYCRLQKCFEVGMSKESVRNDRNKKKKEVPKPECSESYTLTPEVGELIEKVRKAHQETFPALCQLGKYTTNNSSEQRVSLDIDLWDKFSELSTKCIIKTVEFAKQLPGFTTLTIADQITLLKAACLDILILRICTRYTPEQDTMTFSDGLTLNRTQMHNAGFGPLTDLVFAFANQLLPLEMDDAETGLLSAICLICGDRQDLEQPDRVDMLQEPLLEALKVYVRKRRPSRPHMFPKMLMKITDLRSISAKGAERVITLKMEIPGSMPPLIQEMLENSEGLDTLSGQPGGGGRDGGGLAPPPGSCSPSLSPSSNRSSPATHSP
# Source text: as §1, §2
# RARγ [1] = target: T3, RARγ (Homo sapiens, UniProt P13631); test: Ligand binding assay; parameters: expressed in transfected cells; host or cells: CV1 cells; settings: read-out: Kd (nanomolar) RARγ
# T3 sequence (P13631 1-454): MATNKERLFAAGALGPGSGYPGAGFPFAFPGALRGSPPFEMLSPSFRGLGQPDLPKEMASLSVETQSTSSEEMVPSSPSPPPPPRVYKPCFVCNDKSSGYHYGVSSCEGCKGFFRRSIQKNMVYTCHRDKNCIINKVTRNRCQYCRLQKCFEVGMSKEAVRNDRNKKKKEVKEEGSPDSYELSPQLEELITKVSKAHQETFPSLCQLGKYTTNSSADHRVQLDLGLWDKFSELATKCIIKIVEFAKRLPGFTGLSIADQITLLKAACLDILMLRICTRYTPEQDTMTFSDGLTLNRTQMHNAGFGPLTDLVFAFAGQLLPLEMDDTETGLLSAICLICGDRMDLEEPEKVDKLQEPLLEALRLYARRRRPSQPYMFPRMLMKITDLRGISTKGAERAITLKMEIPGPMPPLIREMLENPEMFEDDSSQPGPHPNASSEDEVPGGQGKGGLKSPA
# Source text: as §1, §2
# RARγ [2] = target: T3, RARγ; test: [3H]-ATRA displacement assay, baculovirus expressed receptor; assay type: binding; parameters: made in house; host or cells: baculovirus expression system
# [3] = Table 12, relative affinity, competition of 3H-ATRA binding, Cheng-Prussof equation
SMILES,Kd (RARβ) [nM],Kd (RARα) [nM],Kd (RARγ [1]) [nM],Kd (RARγ [2]; [3]) [nM],RAR-γ-VP-16 constitutive activity (negative hormone activity) (RAR-γ-VP-16),Kd (RARγ [2]; Table 11) [nM]
"Cc1ccc(C2=CCC(C)(C)c3ccc(C#Cc4ccc(C(=O)O)cc4)cc32)cc1 [Compound 60, 4-[(5,6-dihydro-5,5-dimethyl-8-(4-methylphenyl)-2-naphthalenyl)ethynyl]benzoic acid]",1.9,1.5,3.3,6,dose dependent repression of RAR-γ-VP-16 constitutive activity,3
"CC1(C)CC=C(c2ccc(C(F)(F)F)cc2)c2cc(C#Cc3ccc(C(=O)O)cc3)ccc21 [Compound 23, 4-[(5,6-Dihydro-5,5-dimethyl-8-(4-trifluoromethylphenyl)-2-naphthalenyl)ethynyl]benzoic acid]",25,32,31,25,dose dependent repression of RAR-γ-VP-16 constitutive activity,
"Cc1ccc(C2=CCC(C)(C)c3cc(C(=O)C=Cc4ccc(C(=O)O)cc4)ccc32)cc1 [Compound 101, 4-[3-oxo-3-(7,8-dihydro-5-(4-methylphenyl)-8,8-dimethyl-2-naphthalenyl)-1-propenyl]-benzoic acid]",143,750,637,,,

# The remaining compounds from weak to strong by Kd (RARβ), led by results:
Kd (RARβ) [nM],Kd (RARα) [nM],Kd (RARγ [1]) [nM],Kd (RARγ [2]; [3]) [nM],SMILES,RAR-γ-VP-16 constitutive activity (negative hormone activity) (RAR-γ-VP-16),Kd (RARγ [2]; Table 11) [nM]
17,50,20,13,"CC1(C)CC=C(c2ccc(Cl)cc2)c2cc(C#Cc3ccc(C(=O)O)cc3)ccc21 [Compound 25, 4-[(5,6-Dihydro-5,5-dimethyl-8-(4-chlorophenyl)-2-naphthalenyl)ethynyl]benzoic acid]",dose dependent repression of RAR-γ-VP-16 constitutive activity,
15,96,16,,"CC(C)(C)c1ccc(C2=CCC(C)(C)c3ccc(C#Cc4ccc(C(=O)O)cc4)cc32)cc1 [Compound 61, 4-[(5,6-Dihydro-5,5-dimethyl-8-(4-(1,1-dimethylethyl)phenyl)-2-naphthalenyl)ethynyl]benzoic acid]",,
9,16,13,,"CCc1ccc(C2=CCC(C)(C)c3ccc(C#Cc4ccc(C(=O)O)cc4)cc32)cc1 [Compound 21, 4-[(5,6-Dihydro-5,5-dimethyl-8-(4-ethylphenyl)-2-naphthalenyl)ethynyl]benzoic acid]",,

# Reference: US6469028B1, “Synthesis and use of retinoid compounds having negative hormone and/or anatgonist activities” (Allergan, Inc., priority 1995, dated 2002)
